Assays:
Solubility = type: physicochemical
PTP1B [1] = conditions: PTP1B over TCPTP; cited from earlier work
PTP1B [2] = assay: pNPP enzyme kinetics, inhibition by amorphadiene; type: biochemical, H. Sapiens
Experimental: (§1) We overexpressed all proteins examined in this study in BL21(DE3) cells by carrying out steps described previously: (i) We used Gibson assembly to introduce mutations for PTP1B or TCPTP encoded by a pET16b vector and transformed sequence-confirmed plasmids into BL21(DE3) cells. (ii) We used an individual colony from each transformation to inoculate 20 mL of LB media, which we incubated at 37°C in an incubator-shaker (225 rpm) for 6 hours, prior to inoculating 1 L of rich induction media (20 g tryptone, 10 g yeast extract, 5 g sodium chloride, 50 μg/mL carbenicillin, 72 mL 5X M9 salts solution, 20 mL of 20% glucose solution). (iii) We grew the resulting inoculum at 37°C and 225 rpm. (iv) At an OD600 of 0.5–0.8, we added 500 μM IPTG to induce protein expression and incubated the induced flasks at 22°C and 225 rpm for 18–20 hours. (v) We pelleted the final culture (5000 rpm for 10 minutes in a Beckman J2-HS floor centrifuge), disposed of the supernatants, and stored the cell pellets at −80°C freezer for future purification. We purified PTP variants with fast protein liquid chromatography (FPLC) using previously described protocols. In brief, we lysed cells with chemical lysis buffer (for each gram of cell pellet, we used 4 mL of 20 mM tris base, 50 mM sodium chloride, 1% Triton X-100, and pH 7.5 supplemented with 2 mg MgSO4–7H2O, 2 mg TAME, 0.5 mL TCEP (0.5 mM), 3.75 μL PMSF solution, 1 mg lysozyme, and 30 U DNase), removed protein debris with saturated ammonium sulfate (20% for PTP1B variants and 10% TCPTP variants, respectively), and extracted the supernatant. We purified PTPs by using nickel affinity chromatography (HisTrap HP with 50 mM Tris-HCl, 300 mM sodium chloride, and 0.5 mM TCEP at pH 7.5 with and without 500 mM imidazole) followed by anion exchange chromatography (HiTrap HP 5 mL with 50 mM HEPES, and 0.5 mM TCEP at pH 7.5 with and without 1 M NaCl). We concentrated final protein fractions into NaCl-free anion exchange buffer ([…], Sartorius) and stored them in 20% glycerol at −80°C.
(§2) We characterized the activity of PTP variants on p-nitrophenyl phosphate (pNPP). In brief, we used 96-well plates to prepare 200-μL reactions with 50 nM enzyme, 50 μg/mL BSA, and varying amorphadiene concentrations (0.5 – 500 μM) in 50 mM HEPES buffer (pH = 7.3) with 10% DMSO. We used 20 mM substrate to initialize the reactions and monitored the formation of p-nitrophenol (pNP) by measuring absorbance at 405 nm at 30-s intervals over 8 minutes (SpectraMax iD3 plate reader). We used standard curves to convert absorbance measurements to product concentrations and used the slopes of the initial rate regime for Vo.

TCPTP = assay: pNPP enzyme kinetics, inhibition by amorphadiene; type: biochemical, H. Sapiens
Experimental: as §1, §2

SMILES: CC(C)=CCC=C(C)C1CC=C(C)CC1 (stereo not drawn) [AB, α-bisabolene]
- solubility (Solubility): low solubility
- selectivity: inhibits PTP1B more potently than TCPTP (PTP1B [1]): 5–7 X

SMILES: CCc1oc2cc(S(=O)(=O)Nc3ccc(S(=O)(=O)Nc4nccs4)cc3)ccc2c1C(=O)c1cc(Br)c(O)c(Br)c1 [BBR, 3-(3,5-Dibromo-4-hydroxy-benzoyl)-2-ethyl-benzofuran-6-sulfonic-acid-(4-(thiazol-2-ylsulfamyl)-phenyl)-amide, reference compound]
- selectivity: inhibits PTP1B more potently than TCPTP (PTP1B [1]): 5–6 X

SMILES: C=C(C)[C@@H]1CC[C@@H](C)[C@@H]2CCC(C)=C[C@@H]21 [AD, amorphadiene]
- IC50 of AD, mutant vs wild-type (PTP1B [2]; PTP1B L158F vs wild-type): indistinguishable
- IC50 of AD, mutant vs wild-type (PTP1B [2]; PTP1B M282K): reduced potency
- IC50 of AD, mutant vs wild-type (PTP1B [2]; PTP1B Q290R): reduced potency
- IC50 of AD, mutant vs wild-type (TCPTP; TCPTP K280M): no effect on IC50
- IC50 of AD, mutant vs wild-type (TCPTP; TCPTP L158F vs wild-type): indistinguishable
- IC50 of AD, mutant vs wild-type (TCPTP; TCPTP R288Q): no effect on IC50
- selectivity: inhibits PTP1B more potently than TCPTP (PTP1B [1]): 5–7 X
